From article PMC11834182 (Parasites & Vectors, 2025)
Where two headings read alike, the source gives them in different places.

What was measured:
rPpAChE1 [1] = molecular target: T1, rPpAChE1 (Phlebotomus papatasi, UniProt M1F887); test: biochemical; design: gene AChE; PpAChE1 cDNA in pBlueBac4.5/V5-His, baculovirus expression in Sf21 cells, expression supernatant; species or system Sf21 (expression host)
rPpAChE1 [2] = molecular target: T1, rPpAChE1; test: biochemical; design: gene AChE
CC(=O)SCC[N+](C)(C)C = test: cells, lysate or membranes; conditions: pH 7.0

CCOC(=O)CC(SP(=O)(OC)OC)C(=O)OCC (stereo not shown) [Maloxon]
IC50 (rPpAChE1 [1]): 44 nM

c1ccc2c(NCCCCCCCNc3c4c(nc5ccccc35)CCCC4)c3c(nc2c1)CCCC3 [bis(7)-tacrine]
IC50 (rPpAChE1 [2]): 4 nM

rPpAChE1 (Phlebotomus papatasi)
Km (CC(=O)SCC[N+](C)(C)C): 123 ± 25 µM
Vmax (CC(=O)SCC[N+](C)(C)C): 74 ± 6.7 µmol/min/mg
